Values joined by “and” are separate entries in the source; they are usually repeats but may differ in a detail not shown here. Equal values may be shown once. Read-outs that look alike come from different tables or passages of the source.
How the values were obtained:
SK-BR-3 cells = assay: In vitro cytotoxicity, SRB assay, 72 h dose-response; assay type: cell-based; conditions: Homo sapiens, SK-BR-3, 72 h, HER2+; 72 h; read-out: IC50
HCC-1954 cells = assay: as above; assay type: cell-based; conditions: Homo sapiens, HCC1954, 72 h, HER2+; 72 h; read-out: IC50
Excerpt: (§1) Nature Protocols, 1, 1112-1 116.

MCF-7 cells = assay: as above; assay type: cell-based; conditions: Homo sapiens, MCF7, 72 h, HER2−; 72 h; read-out: IC50
Excerpt: as §1

MDA-MB-231 cells = assay: as above; assay type: cell-based; conditions: Homo sapiens, MDA-MB-231, 72 h, HER2−; 72 h; read-out: IC50
Excerpt: as §1

[1] = tested on: HCC-1954, SK-BR-3, MDA-MB-231 and MCF-7 cells; assay: In vitro cytotoxicity, whole breast cancer cell panel
Excerpt: (§2) All tumor cell lines used in this study were obtained from the American Type Culture Collection (ATCC), unless otherwise indicated; BT-474 (ATCC HTB-20, Breast Ductal Carcinoma), SK-BR-3 (ATCC HTB-30, Breast Adenocarcinoma) and HCC-1954 (ATCC CRL-2338, Breast Ductal Carcinoma), all HER2+; MDA-MB-231 (ATCC HTB-26, Breast Adenocarcinoma) and MCF-7 (ATCC HTB-22 Breast Adenocarcinoma, pleural effusion), all HER2-; SK-OV-3 (ATCC HTB-77, Ovary Adenocarcinoma), HER2+; NB-4 (Acute Promyelocytic Leukemia, APL, CD13+, M. Lanotte et al. (1991) NB4, a maturation inducible cell line with t(15;17) marker isolated from a human acute promyelocytic leukemia (M3). Blood 77, 1080-1086), (CD13+) and U937 (ATCC CRL-1 593.2, Histiocytic Lymphoma, CD13+ and CD4+); Raji (ATCC CCL-86, Burkitt's Lymphoma) (CD13−, CD20+, CD5−, and CD4−); RPMI-8226 (ATCC CRM-CCL-155, Multiple Myeloma) (CD13−, CD20−, CD5− and CD4−); Karpas-299 (DSMZ ACC-31, Non-Hodgkin's Lymphoma) (CD20−, CD5+, and CD4+); MOLT-4 (ATCC CRL-1 582, Acute Lymphoblastic Leukemia, CD5+). In addition, the two Raji cell (ATCC CCL-86, Burkitt's Lymphoma) clones used in this study Raji-clone #10 (high CD5 expression) and Raji-clone18 (null CD5 expression), were provided by Dr. Juan M. Zapata (Instituto de Investigaciones Biomedicas “Alberto Sols”, CSIC-UAM, Madrid, Spain). Cells were maintained at 37° C., 5% CO 2 and 95% humidity in Dulbecco's Modified Eagle's Medium (DMEM) (for MCF and MDA-MB-231 cells), RPMI-1640 (for SK-BR-3, HCC-1954, NB-4, U937, Raji, RPMI-8226, Karpas-299, MOLT-4, Raji-clone #10 and Raji-clone #18 cells), RPMI-1640+1% ITS (for BT-474 cells) or McCOyS (for SK-OV-3 cells), all media supplemented with 10% Fetal Calf Serum (FCS) and 100 units/mL penicillin and streptomycin.
For adherent cells: A colorimetric assay using sulforhodamine B (SRB) was adapted for quantitative measurement of cell growth and cytotoxicity, as described in V. Vichai and K. Kirtikara (2006) Sulforhodamine B colorimetric assay for cytotoxicity screening. Nature Protocols, 1, 1112-1 116. Briefly, cells were seeded in 96-well microtiter plates and allowed to stand for 24 hours in drug-free medium before treatment with vehicle alone or the indicated compounds for 72 hours. For quantification, cells were washed twice with phosphate buffered saline (PBS), fixed for 15 min in 1% glutaraldehyde solution, rinsed twice with PBS, stained in 0.4% SRB-1% acetic acid solution for 30 min, rinsed several times with 1% acetic acid solution and air-dried. SRB was then extracted in 10 mM trizma base solution and the optical density measured at 490 nm in a microplate spectrophotometer. Cell survival was expressed as percentage of control, untreated cell survival.
(§3) The IC50 value refers to the concentration of compound inducing a 50% of cell death as compared to the control cell survival.
Standard dose-response (DR) curves for 72 hours were performed.

[2] = tested on: Raji, RPMI-8226 and Karpas-299 cells; assay: In vitro cytotoxicity, whole CD20 cell panel
Excerpt: as §2
For suspension cells: A standard metabolic assay using MTT (3-(4,5-Dimethylthiazol-2-yl)-2,5-diphenyltetrazolium bromide) was adapted for quantitative measurement of cell growth and cytotoxicity, as described in T. Mosmann (1983) Rapid colorimetric assay for cellular growth and survival: Application to proliferation and cytotoxicity assays. J. Immunol. Meth., 65, 55-63. Briefly, MTT solution was added to the cell cultures at a final concentration of 0.5 mg/mL, and incubated for 1 to 4 hours at 37° C. until formazan crystals are formed. Culture medium is carefully removed from the cell cultures and formazan crystals resuspended in 100 μl DMSO. After mixing to assure solubilization, the quantity of formazan (presumably directly proportional to the number of viable cells) is measured by recording changes in absorbance at 570 nm using a plate reading spectrophotometer. Cell survival was expressed as percentage of control, untreated cell survival.
as §3
The in vitro cytotoxic activity of ADC12 along with the parent cytotoxic Compounds 1, 4, and 40, was evaluated was assayed against different human cancer cell lines expressing or not the CD20 antigen, including Raji (CD20 positive cells); RPMI-8226 and Karpas-299 (CD20 negative cells). Standard dose-response (DR) curves for 72 hours were performed.

[3] = Homo sapiens, read-out: IC50 values along the different cell lines tested (range), four breast cell lines
[4] = Homo sapiens, read-out: mean IC50 value across the whole cell panel, four breast cell lines
[5] = read-out: mean IC50 value across the whole cell panel, four breast cell lines

Compound | IC50 (SK-BR-3 cells) | IC50 (HCC-1954 cells) | IC50 (MCF-7 cells) | IC50 (MDA-MB-231 cells) | IC50 [1, 3] | IC50 [1, 4] | decrease of cytotoxic activity as compared to Compound 40 ([1]; thiol containing tail) | IC50 [1, 5] [nM] | mean IC50 value across the whole cell panel ([1]; four breast cell lines) | cytotoxic activity ([2]; 50 μg/mL) | cytotoxic activity in DR curves ([2]; 5.0E+01 to 2.62E-05 μg/mL) | decrease of cytotoxic activity as compared to Compound 41 ([1]; 1,3-propylenediamine group) | IC50 ([1]; Homo sapiens, read-out: IC50 values across the different cell lines tested (range), four breast cell lines) [ng/mL]
CC#CC[C@@H](C/C=C\NC(=O)[C@@H](NC(=O)\C=C/C=C\C(C)=C\[C@H](C)[C@@H]1CC=C(OC)C(=O)O1)C(C)(C)C)OC(=O)NCCCNC(=O)CCS [Compound 27] | 0.0105 µg/mL and 14.7 nM | 0.0165 µg/mL and 23.1 nM | 0.039 µg/mL and 54.6 nM | 0.0345 µg/mL and 48.3 nM | 0.0105 µg/mL to 0.039 µg/mL and 15 nM to 55 nM | 0.025 µg/mL and 35 nM |  |  |  |  |  |  | 
COC1=CC[C@@H]([C@@H](C)/C=C(C)/C=C\C=C/C(=O)N[C@H](C(=O)N/C=C\C[C@H](C/C=C(\C)Cl)OC(=O)NCCCS)C(C)(C)C)OC1=O [Compound 15] | 0.00048 µg/mL and 0.706 nM | 0.000675 µg/mL and 0.994 nM | 0.00145 µg/mL and 2.14 nM | 0.00149 µg/mL and 2.19 nM | 0.00048 µg/mL to 0.00149 µg/mL and 0.706 nM to 2.19 nM | 0.00103 µg/mL and 1.51 nM | about 8 fold |  |  |  |  |  | 
CC#CC[C@@H](C/C=C\NC(=O)[C@@H](NC(=O)\C=C/C=C\C(C)=C\[C@H](C)[C@@H]1CC=C(OC)C(=O)O1)C(C)(C)C)OC(N)=O [Compound 41] | 0.00011 µg/mL and 0.193 nM | 0.000104 µg/mL and 0.183 nM | 0.000265 µg/mL and 0.465 nM | 0.00018 µg/mL and 0.316 nM | 0.075 to 0.14 ng/mL | 0.00016 µg/mL and 0.29 nM |  | 0.19 |  |  |  |  | 
C/C=C\C[C@@H](C/C=C\NC(=O)[C@@H](NC(=O)\C=C/C=C\C(C)=C\[C@H](C)[C@@H]1CC=C(OC)C(=O)O1)C(C)(C)C)OC(=O)NCCCNC(=O)CCCCCN1C(=O)C=CC1=O [Compound 5] | 0.019 µg/mL and 23.2 nM | 0.0195 µg/mL and 23.8 nM | 0.0775 µg/mL and 94.1 nM | 0.057 µg/mL and 69.4 nM | 0.019 µg/mL to 0.077 µg/mL and 23.2 nM to 94.1 nM | 0.0433 µg/mL and 52.6 nM |  |  |  |  |  |  | 
CC#CC[C@@H](C/C=C\NC(=O)[C@@H](NC(=O)\C=C/C=C\C(C)=C\[C@H](C)[C@@H]1CC=C(OC)C(=O)O1)C(C)(C)C)OC(=O)NCCCNC(=O)CCCCCN1C(=O)C=CC1=O [Compound 25] | 0.0255 µg/mL and 31.1 nM | 0.044 µg/mL and 53.7 nM | 0.053 µg/mL and 64.6 nM | > 0.1 µg/mL and > 122 nM | 0.025 µg/mL to 0.053 µg/mL and 31 nM to 65 nM | 41 ng/mL |  |  | 49 nM |  |  |  | 
C/C=C\C[C@@H](C/C=C\NC(=O)[C@@H](NC(=O)\C=C/C=C\C(C)=C\[C@H](C)[C@@H]1CC=C(OC)C(=O)O1)C(C)(C)C)OC(=O)NCCCN [Compound 8] | 0.0034 µg/mL and 5.41 nM | 0.0054 µg/mL and 8.59 nM | 0.00675 µg/mL and 10.7 nM | 0.00655 µg/mL and 10.4 nM | 0.0034 µg/mL to 0.00675 µg/mL and 2.94 nM to 15.1 nM | 0.00553 µg/mL and 8.79 nM |  | 8.67 | 5.45 ng/mL |  |  |  | 
Rituximab: anti-CD20 monoclonal antibody [reference compound] |  |  |  |  |  |  |  |  |  | virtually inactive | rather inactive |  | 
CC#CC[C@@H](C/C=C\NC(=O)[C@@H](NC(=O)\C=C/C=C\C(C)=C\[C@H](C)[C@@H]1CC=C(OC)C(=O)O1)C(C)(C)C)OC(=O)NCCCN [Compound 24] | 0.009 µg/mL and 14.4 nM | 0.018 µg/mL and 28.7 nM | 0.0165 µg/mL and 26.3 nM | 0.0175 µg/mL and 27.9 nM | 14 nM to 28 nM and 0.009 µg/mL to 0.018 µg/mL | 0.015 µg/mL and 24 nM |  |  | 24 nM |  |  | about 2 logs | 9 to 18
C/C=C\C[C@@H](C/C=C\NC(=O)[C@@H](NC(=O)\C=C/C=C\C(C)=C\[C@H](C)[C@@H]1CC=C(OC)C(=O)O1)C(C)(C)C)OC(=O)NCCCNC(=O)CCS [Compound 18] | 0.0044 µg/mL and 6.14 nM | 0.00805 µg/mL and 11.2 nM | 0.0185 µg/mL and 25.8 nM | 0.0115 µg/mL and 16 nM | 0.0044 µg/mL to 0.0185 µg/mL and 6.14 nM to 25.8 nM | 0.0106 µg/mL and 14.8 nM |  |  |  |  |  |  | 
